In general, pIC50 refers to the IC50 on a negative log10 scale, so that one unit is a factor of ten.

The values below come from patent publication US7781454B2 (priority 2006, dated 2010).

Experiment [1] addresses T1, mutant HIV reverse transcriptase (Y181C mutation) (Human immunodeficiency virus type 1 group M subtype B, UniProt P04585, Y768C).
T1 construct: against mutant HIV reverse transcriptase; made in house
The experiment is described as follows: ECL assay for inhibition of mutant HIV reverse transcriptase (Y181C). In kind it is biochemical. On the procedure: (§1) 100 μL reaction mixtures were initiated with a combination of primer-template substrate ([…]) and dNTPs (0.6 μM dNTPs, 1.25 μM BrdUTP). The heterodimeric nucleic acid substrate was generated by annealing the DNA primer pD500 (described in Shaw-Reid et al., J. Biol. Chem., 278: 2777-2780; obtained from Integrated DNA Technologies) to t500, a 500 nucleotide RNA template created by in vitro transcription (see Shaw-Reid et al., J. Biol. Chem., 278: 2777-2780). After 1 hour incubation at 37° C., reactions were quenched by 10 μL of 1 N NaOH. Microtiter plates were incubated for an additional 30 minutes at room temperature and then neutralized with 10 μL of 1 N HCl. A mixture of detection buffer containing ruthenylated anti-BrdU antibody and streptavidin coated magnetic beads were added to the plate and incubated at room temperature for 1.5 hours prior to quantification via electrochemiluminescence instrument.
(§2) Analogous assays were conducted substituting mutant HIV strains to determine the in vitro inhibition of compounds of the present invention against mutant HIV reverse transcriptase. In one strain the reverse transcriptase has the Y181C mutation and in the other strain the reverse transcriptase has the K103N mutation. The mutations were generated with the QUIKCHANGE site-directed mutagenesis kit (Stratagene).

The target in experiment [2] is HIV-1 RT enzyme (wild-type) (Human immunodeficiency virus type 1 group M subtype B, UniProt P04585). Put plainly: ECL assay for inhibition of HIV reverse transcriptase (WT). The format is biochemical. Here is the method:
as §1

The target in experiment [3] is T2, mutant HIV reverse transcriptase (K103N mutation) (Human immunodeficiency virus type 1 group M subtype B, UniProt P04585, K690N).
T2 construct: against mutant HIV reverse transcriptase; made in house
Put plainly: ECL assay for inhibition of mutant HIV reverse transcriptase (K103N). In kind it is biochemical. Here is the method:
as §1, §2

Another experiment deals with wild type HIV-1. Put plainly: Spread assay: inhibition of acute HIV-1 infection of T-lymphoid cells (WT). In kind it is cell-based. Particulars: Human immunodeficiency virus 1, T-lymphoid; wild-type strain; 10% FBS; read-out: Spread (WT) CIC95. On the procedure: (§3) Assays for the inhibition of acute HIV-1 infection of T-lymphoid cells (alternatively referred to herein as the “spread assay”) were conducted in accordance with Vacca, J. P. et al., Proc. Natl. Acad. Sci. USA 1994, 91: 4096. The assays tested for inhibition of wild type HIV-1 and of HIV strains containing the Y181C or K103N mutation. […] The compounds of Examples 1 to 4 had CIC95 values of less than 10 micromolar in the assay employing the K103N mutant strain. […] Table C also reports the CIC95 values of the compounds of Examples 1-7, 9-13 and 15-29 obtained in the assays employing the Y181C mutant strain and the K103N mutant strain.

The test system of experiment [4] is HIV strain containing the Y181C mutation. Put plainly: Spread assay: inhibition of HIV replication (Y181C mutant strain). The format is cell-based. The settings on record: Human immunodeficiency virus 1, read-out: Spread (Y181C) CIC95. On the procedure: as §3
Experiment [5] has as its system HIV strain containing the K103N mutation. The experiment is described as follows: Spread assay: inhibition of HIV replication (K103N mutant strain). In kind it is cell-based. Particulars: Human immunodeficiency virus 1, read-out: Spread (K103N) CIC95. On the procedure: as §3
The mark [6] stands for this setting: Y181C mutant RT, read-out: ECL Assay (Y181C) IC50.
[7] abbreviates: K103N mutant RT, read-out: ECL Assay (K103N) IC50.

pIC50: −log10 of the molar value. Structures can show the parent of a compound that is named as a salt. Where two headings read alike, the source gives them in different places.

`N#Cc1cc(Cl)cc(Oc2c(Cl)ccc3c2cnn3Cc2n[nH]c3ncccc23)c1` [Example 1, 3-Chloro-5-{[5-chloro-1-(1H-pyrazolo[3,4-b]pyridin-3-ylmethyl)-1H-indazol-4-yl]oxy}benzonitrile]: the results for the pIC50 in experiment [1] (setting [6]), in experiment [2] and in experiment [3] (setting [7]) were 9.22, 9.46 and 9.24, respectively. For the same molecule, the IC95 in the experiment with wild type HIV-1 came to 13 nM; in experiment [4], 69 nM; in experiment [5] it was 17 nM.
In the case of `N#Cc1cc(Cl)cc(Oc2c(Cl)ccc3c2c(Cl)nn3Cc2n[nH]c3ncccc23)c1` [Example 2, 3-Chloro-5-{[3,5-dichloro-1-(1H-pyrazolo[3,4-b]pyridin-3-ylmethyl)-1H-indazol-4-yl]oxy}benzonitrile], the pIC50 in experiment [1] (setting [6]) is 7.60; in experiment [2], 8.41; in experiment [3] (setting [7]), 7.92. The IC95 in the experiment on wild type HIV-1 worked out at 521 nM; in experiment [5], 2090 nM.
In the case of `N#Cc1cc(Cl)cc(Oc2c(Cl)ccc3c2cnn3Cc2n[nH]c3nc(N)ccc23)c1` [Example 3, 3-{[5-Chloro-4-(3-chloro-5-cyanophenoxy)-1H-indazol-1-yl]methyl}-1H-pyrazolo[3,4-b]pyridin-6-aminium chloride], the pIC50 in experiment [1] (setting [6]) was 8.72; in experiment [2], 9.22; in experiment [3] (setting [7]), 8.77. The results for the IC95 (in the experiment with wild type HIV-1; in experiment [4]; in experiment [5]) were 9 nM, 77 nM and 23 nM, respectively.
As for `N#Cc1cc(Cl)cc(Oc2c(Cl)ccc3c2nnn3Cc2n[nH]c3ncccc23)c1` [Example 4, 3-chloro-5-{[5-chloro-1-(1H-pyrazolo[3,4-b]pyridin-3-ylmethyl)-1H-1,2,3-benzotriazol-4-yl]oxy}benzonitrile], the pIC50 in experiment [1] (setting [6]) is 9.36; in experiment [2] it was 9.62; in experiment [3] (setting [7]) it was 9.39. Besides, the values for the IC95 (in the experiment on wild type HIV-1; in experiment [4]; in experiment [5]) were 4 nM, 24 nM and 5 nM, respectively.
With `CN(Cc1ccccc1Cl)C(=O)Cn1nnc2c(Oc3cc(Cl)cc(C#N)c3)c(Cl)ccc21` [Example 9, N-(2-chlorobenzyl)-2-[5-chloro-4-(3-chloro-5-cyanophenoxy)-1H-1,2,3-benzotriazol-1-yl]-N-methylacetamide], the results for the pIC50 in experiment [1] (setting [6]), in experiment [2] and in experiment [3] (setting [7]) were 6.86, 7.21 and 7.13, respectively. In addition, the results for the IC95 (in the experiment on wild type HIV-1; in experiment [5]) were 770 nM and 807 nM, respectively.
The matching figures for `N#Cc1cc(Cl)cc(Oc2c(Cl)ccc3c2nnn3CC(=O)c2cccnc2)c1` [Example 11, 3-chloro-5-{[5-chloro-1-(2-oxo-2-pyridin-3-ylethyl)-1H-1,2,3-benzotriazol-4-yl]oxy}benzonitrile]: 7.52, 7.74, 7.28, 381 nM and 433 nM.
The matching figures for `N#Cc1cc(Cl)cc(Oc2c(Cl)ccc3c2nnn3CC(=O)OCc2ccccc2)c1` [Example 15]: 8.82, 8.62, 7.92, above 833 nM and above 833 nM.
The matching figures for `N#Cc1cc(Cl)cc(Oc2c(Cl)ccc3c2nnn3CC(=O)N2CCCC(C(N)=O)C2)c1` (centres unmarked) [Example 16, 1-{[5-chloro-4-(3-chloro-5-cyanophenoxy)-1H-1,2,3-benzotriazol-1-yl]acetyl}piperidine-3-carboxamide]: 6.10, 5.96, below 5.74, above 833 nM and above 833 nM.
As to `N#Cc1cc(Cl)cc(Oc2c(Cl)ccc3nn(Cc4n[nH]c5ncccc45)nc23)c1Cl` [Example 20, 2,5-dichloro-3-{[5-chloro-2-(1H-pyrazolo[3,4-b]pyridin-3-ylmethyl)-2H-1,2,3-benzotriazol-4-yl]oxy}benzonitrile], the pIC50 in experiment [1] (setting [6]) is 8.60; in experiment [2] it was 8.68; in experiment [3] (setting [7]), 7.26. For the same molecule, the results for the IC95 (with wild type HIV-1; in experiment [5]) were 420 nM and above 833 nM, respectively.
Turning to `NCc1cc(Cl)cc(Oc2c(Cl)ccc3c2nnn3Cc2n[nH]c3ncccc23)c1Cl` [Example 21, 1-(2,5-dichloro-3-{[5-chloro-1-(1H-pyrazolo[3,4-b]pyridin-3-ylmethyl)-1H-1,2,3-benzotriazol-4-yl]oxy}phenyl)methanamine], the pIC50 in experiment [3] (setting [7]) was 8.38. The IC95 stood at 58 nM in the experiment with wild type HIV-1, 417 nM in experiment [4] and 192 nM in experiment [5].
On to `N#Cc1cc(Cl)cc(Oc2c(Cl)ccc3c2nnn3Cc2n[nH]c3nc(N)ccc23)c1Cl` [Example 22, 3-({1-[(6-amino-1H-pyrazolo[3,4-b]pyridin-3-yl)methyl]-5-chloro-1H-1,2,3-benzotriazol-4-yl}oxy)-2,5-dichlorobenzonitrile], for which the pIC50 in experiment [1] (setting [6]) is 9.10; in experiment [2], 9.28; in experiment [3] (setting [7]), 9.10. Moreover, the results for the IC95 (in the experiment on wild type HIV-1; in experiment [5]) were 4 nM and 9 nM, respectively.
Regarding `N#Cc1cc(Cl)cc(Oc2c(Cl)ccc3c2nnn3Cc2nnc(-c3ccccc3)o2)c1` [Example 23, 3-chloro-5-({5-chloro-1-[(5-phenyl-1,3,4-oxadiazol-2-yl)methyl]-1H-1,2,3-benzotriazol-4-yl}oxy)benzonitrile], the pIC50 is 8.47 in experiment [1] (setting [6]), 8.21 in experiment [2] and 8.00 in experiment [3] (setting [7]). For the same molecule, the IC95 in the experiment on wild type HIV-1 was 96 nM; in experiment [5] it was above 833 nM.
On to `N#Cc1cc(Cl)cc(Oc2c(Cl)ccc3nn(Cc4nnc(-c5ccccc5)o4)nc23)c1` [Example 24, 3-chloro-5-({5-chloro-2-[(5-phenyl-1,3,4-oxadiazol-2-yl)methyl]-2H-1,2,3-benzotriazol-4-yl}oxy)benzonitrile], for which the pIC50 is 7.33 in experiment [1] (setting [6]), 7.34 in experiment [2] and 6.82 in experiment [3] (setting [7]). In addition, the IC95 (in the experiment with wild type HIV-1; in experiment [5]) was above 833 nM each time.
In the case of `Cc1ccn2c(Cc3n[nH]c4ncccc34)ncc2c1Oc1cc(Cl)cc(C#N)c1` [Example 25, 3-chloro-5-{[7-methyl-3-(1H-pyrazolo[3,4-b]pyridin-3-ylmethyl)imidazo[1,5-a]pyridin-8-yl]oxy}benzonitrile trifluoroacetate], the pIC50 in experiment [1] was 7.48; in experiment [2], 7.70; in experiment [3], 7.43. The results for the IC95 (in the experiment with wild type HIV-1; in experiment [5]) were 115 nM and 362 nM, respectively.
`Cc1ccn2c(Cc3n[nH]c4ncccc34)nnc2c1Oc1cc(Cl)cc(C#N)c1` [Example 26, 3-chloro-5-{[7-methyl-3-(1H-pyrazolo[3,4-b]pyridin-3-ylmethyl)[1,2,4]triazolo[4,3-a]pyridin-8-yl]oxy}benzonitrile trifluoroacetate]: the results for the pIC50 in experiment [1], in experiment [2] and in experiment [3] were 5.92, 6.66 and 6.09, respectively. Besides, the IC95 (with wild type HIV-1; in experiment [5]) was above 833 nM throughout.
Take `N#Cc1cc(Cl)cc(Oc2c(Cl)ccc3c2CCCN3Cc2n[nH]c3ncccc23)c1` [Example 27, 3-chloro-5-{[6-chloro-1-(1H-pyrazolo[3,4-b]pyridine-3-ylmethyl)-1,2,3,4-tetrahydroquinolin-5-yl]oxy}benzonitrile]: the pIC50 in experiment [1] (setting [6]) is 6.80; in experiment [2], 6.80; in experiment [3] (setting [7]), 6.19. In addition, the IC95 in the experiment on wild type HIV-1 came out at 3280 nM; in experiment [5], 7730 nM.
Regarding `N#Cc1cc(Cl)cc(Oc2c(Cl)ccc3c2nnn3CCO)c1` [Example 28, 3-chloro-5-{[5-chloro-1-(2-hydroxyethyl)-1H-1,2,3-benzotriazol-4-yl]oxy}benzonitrile], the pIC50 in experiment [1] (setting [6]) is 7.11; in experiment [2] it was 7.17; in experiment [3] (setting [7]) it was 6.68. Also, the IC95 in the experiment on wild type HIV-1 was 557 nM; in experiment [5], above 833 nM.
The matching figures for `N#Cc1cc(C#N)cc(Oc2c(Cl)ccc3c2nnn3Cc2n[nH]c3ncccc23)c1` [Example 29, 5-{[5-chloro-1-(1H-pyrazolo[3,4-b]pyridin-3-ylmethyl)-1H-1,2,3-benzotriazol-4-yl]oxy}isophthalonitrile]: 8.89, 9.05, 8.85, 2.5 nM and 3.1 nM.
